Assay results: patent US8889874B2, “Imidazolone-chalcone derivatives as potential anticancer agent and process for the preparation thereof” (Council of Scientific and Industrial Research, priority 2010, dated 2014)
Where two headings read alike, the source gives them in different places.

Experiments:
Assay in all cases: NCI anticancer screen, SRB assay, 48 h
Format in all cases: cell-based, human
786-0 (renal) = details: Homo sapiens
Protocol: (§1) Some of biological activity studies were carried out at the National Cancer Institute (NCI), Maryland, USA.
(§2) The compounds were evaluated for anticancer activity against fifty three human cancer cells derived from nine cancer types (leukemia cell line, non-small-cell lung cell line, colon cell line, CNS cell line, melanoma cell line, ovarian cell line, prostate cell line, and breast cancer cell line) as shown in Table 1. For each compound, dose response curves for each cell line were measured at a minimum of five concentrations at 10 fold dilutions. A protocol of 48 h continuous drug exposure was used and a sulforhodamine B (SRB) protein assay was used to estimate cell viability or growth.

A498 (renal) = details: Homo sapiens
Protocol: as §1, §2

[1] = test system: A549/ATCC (non-small cell lung); details: Homo sapiens
Protocol: as §1, §2

ACHN (renal) = details: Homo sapiens
Protocol: as §1, §2

CAKI-1 (renal) = details: Homo sapiens
Protocol: as §1, §2

COLO 205 (colon) = details: Homo sapiens, COLO 205
Protocol: as §1, §2

[2] = test system: EKVX (non-small cell lung); details: Homo sapiens
Protocol: as §1, §2

HCC-2998 (colon) = details: Homo sapiens
Protocol: as §1, §2

HCT-15 (colon) = details: Homo sapiens
Protocol: as §1, §2

[3] = test system: HOP-62 (non-small cell lung); details: Homo sapiens
Protocol: as §1, §2

[4] = test system: HOP-92 (non-small cell lung); details: Homo sapiens
Protocol: as §1, §2

HS 578T (breast) = details: Homo sapiens
Protocol: as §1, §2

HT29 (colon) = details: Homo sapiens
Protocol: as §1, §2

[5] = test system: K-562 (leukemia cell line); details: Homo sapiens
Protocol: as §1, §2

KM12 (colon) = details: Homo sapiens
Protocol: as §1, §2

LOX IMVI (melanoma) = details: Homo sapiens
Protocol: as §1, §2

MALME-3M (melanoma) = details: Homo sapiens
Protocol: as §1, §2

MCF7 (breast) = details: Homo sapiens
Protocol: as §1, §2

MDA-MB-231/ATCC (breast) = details: Homo sapiens
Protocol: as §1, §2

MDA-MB-435 (melanoma) = details: Homo sapiens
Protocol: as §1, §2

[6] = test system: NCI-H226 (non-small cell lung); details: Homo sapiens
Protocol: as §1, §2

[7] = test system: NCI-H23 (non-small cell lung); details: Homo sapiens
Protocol: as §1, §2

[8] = test system: NCI-H322M (non-small cell lung); details: Homo sapiens
Protocol: as §1, §2

NCI/ADR-RES (ovarian) = details: Homo sapiens, NCI/ADR-RES
Protocol: as §1, §2

OVCAR-4 (ovarian) = details: Homo sapiens
Protocol: as §1, §2

OVCAR-5 (ovarian) = details: Homo sapiens
Protocol: as §1, §2

OVCAR-8 (ovarian) = details: Homo sapiens
Protocol: as §1, §2

[9] = test system: RPMI-8226 (leukemia cell line); details: Homo sapiens
Protocol: as §1, §2

SK-MEL-5 (melanoma) = details: Homo sapiens
Protocol: as §1, §2

SN12C (renal) = details: Homo sapiens, SN12C
Protocol: as §1, §2

SNB-19 (CNS) = details: Homo sapiens
Protocol: as §1, §2

SNB-75 (CNS) = details: Homo sapiens
Protocol: as §1, §2

TK-10 (renal) = details: Homo sapiens
Protocol: as §1, §2

U251 (CNS) = details: Homo sapiens
Protocol: as §1, §2

UACC-257 (melanoma) = details: Homo sapiens
Protocol: as §1, §2

[10] = 48 h exposure, SRB, read-out: GI50
[11] = read-out: pGI50 (-log of molar concentration causing 50% inhibition of net cell growth) (converted)

O=C(/C=C/c1cccc(O)c1)c1cccc(-n2cc(-c3ccc(Cl)cc3)[nH]c2=O)c1 [4f, 4-(4-chlorophenyl)-1-3-[(E)-3-(3-hydroxyphenyl)-2-propenoyl]phenyl-2,3-dihydro-1H-2-imidazolone]
GI50 (786-0 (renal); [10]): 1.57 µM
GI50 (786-0 (renal); [11]): 1.58 µM
GI50 (A498 (renal); [10]): 3.71 µM
GI50 (A498 (renal); [11]): 3.72 µM
GI50 [1, 10]: 3.55 µM
GI50 [1, 11]: 3.55 µM
GI50 (ACHN (renal); [10]): 1.84 µM
GI50 (ACHN (renal); [11]): 1.82 µM
GI50 (CAKI-1 (renal); [10]): 1.72 µM
GI50 (CAKI-1 (renal); [11]): 1.74 µM
GI50 (COLO 205 (colon); COLO205, read-out: pGI50 (-log of molar concentration causing 50% inhibition of net cell growth) (converted)): 2.29 µM
GI50 (COLO 205 (colon); [10]): 2.29 µM
GI50 [2, 10]: 2.4 µM
GI50 [2, 11]: 2.4 µM
GI50 (HCC-2998 (colon); [10]): 13.7 µM
GI50 (HCC-2998 (colon); [11]): 13.8 µM
GI50 (HCT-15 (colon); [10]): 2.33 µM
GI50 (HCT-15 (colon); [11]): 2.34 µM
GI50 [3, 10]: 2.36 µM
GI50 [3, 11]: 2.34 µM
GI50 [4, 10]: 1.6 µM
GI50 [4, 11]: 1.58 µM
GI50 (HS 578T (breast); [10]): 4 µM
GI50 (HS 578T (breast); [11]): 3.98 µM
GI50 (HT29 (colon); HT-29, 48 h exposure, SRB, read-out: GI50): 1.9 µM
GI50 (HT29 (colon); HT-29, read-out: pGI50 (-log of molar concentration causing 50% inhibition of net cell growth) (converted)): 1.91 µM
GI50 ([5]; K562, 48 h exposure, SRB, read-out: GI50): 0.4 µM
GI50 ([5]; K562, read-out: pGI50 (-log of molar concentration causing 50% inhibition of net cell growth) (converted)): 0.398 µM
GI50 (KM12 (colon); [10]): 1.34 µM
GI50 (KM12 (colon); [11]): 1.35 µM
GI50 (LOX IMVI (melanoma); [10]): 1.57 µM
GI50 (LOX IMVI (melanoma); [11]): 1.58 µM
GI50 (MALME-3M (melanoma); Malme-3M, read-out: pGI50 (-log of molar concentration causing 50% inhibition of net cell growth) (converted)): 1.82 µM
GI50 (MALME-3M (melanoma); MALME-3M, 48 h exposure, SRB, read-out: GI50): 1.83 µM
GI50 (MCF7 (breast); [10]): 1.27 µM
GI50 (MCF7 (breast); [11]): 1.29 µM
GI50 (MDA-MB-231/ATCC (breast); [10]): 3.35 µM
GI50 (MDA-MB-231/ATCC (breast); [11]): 3.39 µM
GI50 (MDA-MB-435 (melanoma); [10]): 2.06 µM
GI50 (MDA-MB-435 (melanoma); [11]): 2.04 µM
GI50 [6, 10]: 2.31 µM
GI50 [6, 11]: 2.29 µM
GI50 [7, 10]: 2.78 µM
GI50 [7, 11]: 2.75 µM
GI50 [8, 10]: 2.52 µM
GI50 [8, 11]: 2.51 µM
GI50 (NCI/ADR-RES (ovarian); NCl/ADR-RES, 48 h exposure, SRB, read-out: GI50): 2.2 µM
GI50 (NCI/ADR-RES (ovarian); [11]): 2.19 µM
GI50 (OVCAR-4 (ovarian); [10]): 2.21 µM
GI50 (OVCAR-4 (ovarian); [11]): 2.19 µM
GI50 (OVCAR-5 (ovarian); [10]): 2.19 µM
GI50 (OVCAR-5 (ovarian); [11]): 2.19 µM
GI50 (OVCAR-8 (ovarian); [10]): 0.99 µM
GI50 (OVCAR-8 (ovarian); [11]): 1 µM
GI50 [9, 10]: 1.55 µM
GI50 [9, 11]: 1.55 µM
GI50 (SK-MEL-5 (melanoma); [10]): 1.53 µM
GI50 (SK-MEL-5 (melanoma); [11]): 1.51 µM
GI50 (SN12C (renal); SN 12C, read-out: pGI50 (-log of molar concentration causing 50% inhibition of net cell growth) (converted)): 1.95 µM
GI50 (SN12C (renal); [10]): 1.95 µM
GI50 (SNB-19 (CNS); [10]): 1.92 µM
GI50 (SNB-19 (CNS); [11]): 1.91 µM
GI50 (SNB-75 (CNS); [10]): 1.46 µM
GI50 (SNB-75 (CNS); [11]): 1.45 µM
GI50 (TK-10 (renal); [10]): 2.83 µM
GI50 (TK-10 (renal); [11]): 2.82 µM
GI50 (U251 (CNS); U-251, 48 h exposure, SRB, read-out: GI50): 0.58 µM
GI50 (U251 (CNS); U-251, read-out: pGI50 (-log of molar concentration causing 50% inhibition of net cell growth) (converted)): 0.575 µM
GI50 (UACC-257 (melanoma); [10]): 4.07 µM
GI50 (UACC-257 (melanoma); [11]): 4.07 µM
